Experimental data from patent US20240400986A1, “MEMBRANE BOUND COMPOSITIONS AND METHODS RELATING TO SAME” (FLAGSHIP PIONEERING INNOVATIONS VII, LLC, priority 2021, published 2024).
Structures can show the parent of a compound that is named as a salt. Where two headings read alike, the source gives them in different places.

Assays:
[1] = system: cardiomyocytic cell line derived from human ventricular heart tissue; experiment: Cell viability in cardiomyocyte compound screen (CellTiter-Glo); assay type: cell-based
From the text: Cells were stained with Hoechst 34580, CellTracker Green/CellMask Green Actin and MitoTracker Deep Red to detect nuclear material, cytoplasm/F-actin, and mitochondria, respectively, and cultured in poly-L-lysine-coated 96-well glass bottom plates at 15,800 cells/cm^2 and allowed to adhere overnight. For the screening, a total of 100 randomly organized compounds (TargetMol) were divided in 5 groups. Each group included an untreated condition, a vehicular DMSO control, and a known high-gigasome producing condition to comparatively study gigasome production rates. As a cell death control group, 500 nM Staurosporine was added to induce apoptosis. Cultures were incubated for 24 hours under gigasome inducing conditions at concentrations ranging between 10 nM and 10,000 nM. […] Cells remaining in the 96-well plates were assessed for viability using CellTiter-Glo (Promega).

[2] = system: neuronal cell line derived from human neuroblastoma
Method: For the screening, a total of 99 compounds (TargetMol) were divided in 5 groups. Each group included an untreated condition, a vehicular DMSO control, and a known high-gigasome producing condition to comparatively study gigasome production rates. As a cell death control group, 500 nM Staurosporine was added to induce apoptosis. Cultures were incubated for 24 hours under gigasome inducing conditions at concentrations ranging between 10 nM and 10,000 nM. Before the end of the treatment, live neuronal cultures were imaged. The Zeiss ZEN Blue software was used to distribute imaging fields of view (positions) to create an unbiased imaging sample of a well. 5 images were taken using a Zeiss LSM 900 confocal microscope. […] The BioApps ZEN software package was used to perform cell nucleus segmentation and counting. After 24 hours, gigasomes were harvested from the cell culture media by gently removing from the top of each 96-well ⅔ of the total volume without disturbing the cell layer (containing the settled gigasomes) and by adding to each well the same amount of PBS. […] Cells remaining in the 96-well plates were assessed for viability using CellTiter-Glo (Promega).

[3] = system: cardiomyocytic cell line derived from human ventricular heart tissue; experiment: Small molecule compound screen of gigasome production in cardiomyocytic monocultures;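 as to all read-outs here: gigasomes shed into the culture medium were imaged by confocal microscopy and counted as round particles lacking nuclear signal, extrapolated to the whole well, fold change is relative to DMSO vehicle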; settings: for fold induction at 0.01 µM / fold induction at 0.1 µM / fold induction at 1 µM / fold induction at 10 µM: Homo sapiens, Cardiomyocyte, read-out: Fold Change of Gigasomes Produced vs. DMSO
[4] = system: neuronal cell line derived from human neuroblastoma; experiment: Small molecule compound screen of gigasome production in neuronal monocultures; settings: for Fold Change of Gigasomes Produced vs. DMSO / Number of Gigasomes Produced: neuronal cells, 24 hours; for fold induction at 0.01 µM / fold induction at 0.1 µM / fold induction at 1 µM / fold induction at 10 µM: Homo sapiens, read-out: Fold Change of Gigasomes Produced vs. DMSO
[5] = Table 22, dose 100 nM, cardiomyocytes, 24 hours
[6] = Table 22, dose 1000 nM, cardiomyocytes, 24 hours
[7] = Table 22, dose 10000 nM, cardiomyocytes, 24 hours
[8] = neuronal cells, dose 10 nM, 24 hours
[9] = neuronal cells, dose 100 nM, 24 hours
[10] = neuronal cells, dose 1000 nM, 24 hours
[11] = neuronal cells, dose 10000 nM, 24 hours
[12] = Table 23 (down-regulators), dose 10 nM, cardiomyocytes
[13] = Table 23 (down-regulators), dose 100 nM, cardiomyocytes
[14] = Table 23 (down-regulators), dose 1000 nM, cardiomyocytes
[15] = Table 23 (down-regulators), dose 10000 nM, cardiomyocytes
[16] = Table 22, dose 10 nM, cardiomyocytes, 24 hours

SMILES	Viability [1, 5]	Viability [2, 8] [%]	Viability [2, 9] [%]	Viability [2, 10]	Viability [2, 11]	Number of Gigasomes Produced [3, 5]	Number of Gigasomes Produced [3, 6]	Number of Gigasomes Produced ([4]; dose 10 nM)	Number of Gigasomes Produced ([4]; dose 100 nM)	Number of Gigasomes Produced ([4]; dose 1000 nM)	Number of Gigasomes Produced ([4]; dose 10000 nM)	fold induction at 0.01 µM ([3]; 24 h)	fold induction at 0.1 µM ([3]; 24 h)	fold induction at 1 µM ([3]; 24 h)	fold induction at 10 µM ([3]; 24 h)	fold induction at 0.01 µM ([4]; 24 h)	fold induction at 10 µM ([4]; 24 h)	Viability ([1]; human, 24 h, 10000 nM)	other results
CO/C1=C\C(C)=C\[C@@H](C)[C@@H](O)[C@@H](C)C/C(C)=C/C=C/[C@H](OC)[C@@H]([C@@H](C)[C@@H](O)[C@H](C)[C@@]2(O)C[C@@H](O)[C@H](C)[C@@H](C(C)C)O2)OC1=O [Bafilomycin A1, reference compound]	>75%	>75	100	>75%	>75%	225-250	250-275	85-95	105-115	>115	>115	–	–	–	–	–	–	–	Viability [1, 6]: >75%; Viability [1, 7]: >75%; Fold Change of Gigasomes Produced vs. DMSO [3, 5]: 1.5-1.75; Fold Change of Gigasomes Produced vs. DMSO [3, 6]: 1.75-2.0; Fold Change of Gigasomes Produced vs. DMSO [3, 7]: 1.75-2.0; Number of Gigasomes Produced [3, 7]: 250-275; Fold Change of Gigasomes Produced vs. DMSO ([4]; dose 10 nM): 1.75-2.0; Fold Change of Gigasomes Produced vs. DMSO ([4]; dose 100 nM): 2.0-3.0; Fold Change of Gigasomes Produced vs. DMSO ([4]; dose 1000 nM): 2.0-3.0; Fold Change of Gigasomes Produced vs. DMSO ([4]; dose 10000 nM): 3.0-4.0
Cn1cnc(N)c2ncnc1-2 [Compound 3-Methyladenine, 3-Methyladenine]	–	100	100	100%	–	–	–	45-55	45-55	35-45	–	1.25 to 1.5	1.25 to 1.5	0.75 to 1	0.5 to 0.75	1.5 to 1.75	–	–	Viability [1, 12]: >75%; Viability [1, 13]: >75%; Viability [1, 14]: >75%; Viability [1, 15]: >75%; Number of Gigasomes Produced [3, 12]: >150; Number of Gigasomes Produced [3, 13]: >150; Number of Gigasomes Produced [3, 14]: 120-135; Number of Gigasomes Produced [3, 15]: 90-105; fold induction at 0.1 µM ([4]; 24 h): 1.5 to 1.75; fold induction at 1 µM ([4]; 24 h): 1.25 to 1.5
CC1=C(O)C(=O)C=C2C1=CC=C1[C@@]2(C)CC[C@@]2(C)[C@@H]3C[C@](C)(C(=O)O)CC[C@]3(C)CC[C@]12C [Tripterin, reference compound]	>75%	–	–	>75%	–	<150	375-400	–	–	75-85	–	–	–	–	–	–	–	–	Viability [1, 6]: 50-75%; Fold Change of Gigasomes Produced vs. DMSO [3, 5]: 0.75-1.0; Fold Change of Gigasomes Produced vs. DMSO [3, 6]: 3.0-4.0; Fold Change of Gigasomes Produced vs. DMSO ([4]; dose 1000 nM): 2.0-3.0
C[C@H]1CCC/C=C/[C@@H]2C[C@H](O)C[C@H]2[C@H](O)/C=C/C(=O)O1 [Brefeldin A]	–	100	–	–	–	–	–	45-55	–	–	–	–	–	–	–	–	–	–	Viability [1, 16]: >75%; Fold Change of Gigasomes Produced vs. DMSO [3, 16]: 1.25-1.5; Number of Gigasomes Produced [3, 16]: 250-275; Fold Change of Gigasomes Produced vs. DMSO ([4]; dose 10 nM): 1.5-1.75
C=C(C)[C@@H]1CC[C@]2(CO)CC[C@]3(C)[C@H](CC[C@@H]4[C@@]5(C)CC[C@H](O)C(C)(C)[C@@H]5CC[C@]43C)[C@@H]12 [Betulin]	100%	100	–	–	100%	175-200	–	45-55	–	–	35-45	–	1.5 to 1.75	–	–	1.25 to 1.5	1 to 1.25	–	–
COc1cc(O)c2c(c1)oc(=O)c1c3cc(O)c(O)cc3oc21 [Wedelolactone, reference compound]	–	–	–	–	–	–	–	–	–	–	–	0.5 to 0.75	0.5 to 0.75	0.5 to 0.75	< 0.25	–	–	>75%	Viability ([1]; human, 24 h, 10 nM): 100.0%; Viability ([1]; human, 24 h, 100 nM): 100.0%; Viability ([1]; human, 24 h, 1000 nM): >75%; Number of Gigasomes Produced [3, 12]: 75-90; Number of Gigasomes Produced [3, 13]: 75-90; Number of Gigasomes Produced [3, 14]: 50-75; Number of Gigasomes Produced [3, 15]: <20; downregulation of gigasome production ([3]; cardiomyocytes, doses 10-10,000 nM, 24 h): dose-dependent downregulation; gigasome production, fold-change compared to DMSO ([4]; Oleuropein across doses, Wedelolactone 10,000 nM, 24 h): < 0.2
O=c1ncn2nc(Sc3ccc(F)cc3F)ccc2c1-c1c(Cl)cccc1Cl [Neflamapimod]	–	100	>75	100%	100%	–	–	30-35	25-30	20-25	15-20	1 to 1.25	0.75 to 1	0.75 to 1	0.75 to 1	0.75 to 1	0.5 to 0.75	100.0%	Viability ([1]; human, 24 h, 10 nM): 100.0%; Viability ([1]; human, 24 h, 100 nM): 100.0%; Viability ([1]; human, 24 h, 1000 nM): >75%; Number of Gigasomes Produced [3, 12]: 120-135; Number of Gigasomes Produced [3, 13]: 90-105; Number of Gigasomes Produced [3, 14]: 75-90; Number of Gigasomes Produced [3, 15]: 75-90; fold induction at 0.1 µM ([4]; 24 h): 0.75 to 1; fold induction at 1 µM ([4]; 24 h): 0.5 to 0.75
CC(=O)O[C@H]1C(=O)[C@@]2(C)[C@H]([C@H](OC(=O)c3ccccc3)[C@]3(O)C[C@H](OC(=O)[C@H](O)[C@@H](NC(=O)c4ccccc4)c4ccccc4)C(C)=C1C3(C)C)[C@]1(OC(C)=O)CO[C@@H]1C[C@@H]2O [Paclitaxel]	–	–	–	–	–	–	–	55-65	–	–	–	1.5 to 1.75	–	–	–	1.5 to 1.75	–	–	Viability ([1]; human, 24 h, 10 nM): >75%; Viability ([2]; human, 24 h, 10 nM): >75%; Number of Gigasomes Produced [3, 16]: 150-175
CC[C@@]1([C@@H]2O[C@@H]([C@H]3O[C@@](O)(CO)[C@H](C)C[C@@H]3C)C[C@@H]2C)CC[C@H]([C@]2(C)CC[C@]3(C[C@H](O)[C@@H](C)[C@@H]([C@@H](C)[C@@H](OC)[C@H](C)C(=O)O)O3)O2)O1 [Monensin sodium salt]	>75%	>75	>75	–	50-75%	150-175	250-275	<35	55-65	–	55-65	1.25 to 1.5	1.25 to 1.5	2 to 3	–	0.75 to 1	1.5 to 1.75	–	Viability [1, 16]: >75%; Viability [1, 6]: 50-75%; Number of Gigasomes Produced [3, 16]: 150-175; fold induction at 0.1 µM ([4]; 24 h): 1.75 to 2
C[C@@H]1COCCN1c1cc(=O)n2c(n1)N(Cc1cncc(Cl)c1)[C@H](C(F)(F)F)CC2 [SAR405]	–	–	–	–	–	–	150-175	–	–	–	–	–	–	1 to 1.25	1 to 1.25	–	–	>75%	Viability ([1]; human, 24 h, 1000 nM): 100.0%; Number of Gigasomes Produced [3, 7]: 200-225
Nc1ccccc1NC(=O)c1ccc(CNC(=O)OCc2cccnc2)cc1 [Entinostat, reference compound]	–	–	–	–	–	300-325	–	–	–	–	35-45	–	1.75 to 2	–	–	–	1.25 to 1.5	–	Viability ([1]; human, 24 h, 100 nM): >75%; Viability ([2]; human, 24 h, 10000 nM): >75%
CCN(CC)CCNC(=O)c1c(C)[nH]c(/C=C2\C(=O)Nc3ccc(F)cc32)c1C [Sunitinib]	–	–	–	–	–	–	–	–	–	–	–	–	–	–	1.5 to 1.75	–	–	50-75%	Number of Gigasomes Produced [3, 7]: 200-225
COc1ccc(C[C@H]2NC[C@H](O)[C@H]2OC(C)=O)cc1 [Anisomycin]	50-75%	100	>75	50-75%	–	150-175	–	<35	65-75	65-75	–	–	–	–	–	–	–	–	Fold Change of Gigasomes Produced vs. DMSO [3, 5]: 1.25-1.5; Fold Change of Gigasomes Produced vs. DMSO ([4]; dose 10 nM): 1.0-1.25; Fold Change of Gigasomes Produced vs. DMSO ([4]; dose 100 nM): 1.75-2.0; Fold Change of Gigasomes Produced vs. DMSO ([4]; dose 1000 nM): 1.75-2.0
